Data from ChEMBL document CHEMBL1128754, “The SAR of 6-(N-alkyl-N-acyl)-2-propyl-3-[(2-tetrazol-5-yl)biphen-4-yl)methyl]-quinazolinones as balanced affinity antagonists of the human AT1 and AT2 receptors” (Bioorg Med Chem Lett, 1995).
Substitutions are numbered along the chain they refer to.

System: not listed separately
Experiment: physchem
Details: octanol/water
Description: Partition coefficient (logP)

| SMILES | logP |
| --- | --- |
| Cn1nnnc1-c1ccccc1-c1ccc(Cn2cnc3ccc(N(Cc4ccccn4)C(=O)c4ccccc4)cc3c2=O)cc1 | 3.6 |
| CCCCCN(C(=O)c1ccc(S(C)(=O)=O)cc1)c1ccc2ncn(Cc3ccc(-c4ccccc4-c4nnnn4C)cc3)c(=O)c2c1 | 4.4 |
| CCOCCN(C(=O)c1ccccc1)c1ccc2ncn(Cc3ccc(-c4ccccc4-c4nnnn4C)cc3)c(=O)c2c1 | 3.9 |
| CCCCC(=O)N(Cc1ccccc1)c1ccc2ncn(Cc3ccc(-c4ccccc4-c4nnnn4C)cc3)c(=O)c2c1 | 5.4 |
| Cn1nnnc1-c1ccccc1-c1ccc(Cn2cnc3ccc(N(Cc4ccccc4)C(=O)c4ccccn4)cc3c2=O)cc1 | 3.8 |
| CCOC(=O)CCCN(C(=O)c1ccccc1)c1ccc2ncn(Cc3ccc(-c4ccccc4-c4nnnn4C)cc3)c(=O)c2c1 | 4.1 |
| Cn1nnnc1-c1ccccc1-c1ccc(Cn2cnc3ccc(N(CCCC(=O)O)C(=O)c4ccccc4)cc3c2=O)cc1 | 2.3 |
| CCCCCN(C(=O)c1ccncc1)c1ccc2ncn(Cc3ccc(-c4ccccc4-c4nnnn4C)cc3)c(=O)c2c1 | 4.3 |
| Cn1nnnc1-c1ccccc1-c1ccc(Cn2cnc3ccc(N(Cc4ccc(C(=O)O)cc4)C(=O)c4ccccc4)cc3c2=O)cc1 | 2.4 |
| Cn1nnnc1-c1ccccc1-c1ccc(Cn2cnc3ccc(N(Cc4ccccn4)C(=O)c4ccco4)cc3c2=O)cc1 | 3.2 |
| CCCCCN(C(=O)c1ccc([S+](C)[O-])cc1)c1ccc2ncn(Cc3ccc(-c4ccccc4-c4nnnn4C)cc3)c(=O)c2c1 (stereo unspecified) | 4.3 |

Species on record: Rattus norvegicus
Experiment: not given
Details: dose 1 mg/kg; route oral

| SMILES | Duration [h] |
| --- | --- |
| CCCCC(=O)N(Cc1ccccc1)c1ccc2ncn(Cc3ccc(-c4ccccc4-c4nnnn4C)cc3)c(=O)c2c1 | >3 |
| Cn1nnnc1-c1ccccc1-c1ccc(Cn2cnc3ccc(N(Cc4ccccn4)C(=O)c4ccco4)cc3c2=O)cc1 | <3 |

Target: Angiotensin II receptor (Homo sapiens) (UniProt P30556+P50052)
Experiment: Ratio of receptor binding affinity AT2/AT1 in human adrenal tissue in th+e presence of 2 mg/ml bovine serum albumin
Assay type: protein assay
Details: not given

| SMILES | Ratio |
| --- | --- |
| Cn1nnnc1-c1ccccc1-c1ccc(Cn2cnc3ccc(N(Cc4ccccn4)C(=O)c4ccccc4)cc3c2=O)cc1 | 0.2 |
| CCCCC(=O)N(Cc1ccccc1)c1ccc2ncn(Cc3ccc(-c4ccccc4-c4nnnn4C)cc3)c(=O)c2c1 | 0.1 |
| Cn1nnnc1-c1ccccc1-c1ccc(Cn2cnc3ccc(N(Cc4ccccn4)C(=O)c4ccco4)cc3c2=O)cc1 | 0.3 |

Target: T1, Angiotensin II receptor (AT-1) type-1 (Rattus norvegicus, UniProt P29089+P25095)
T1 sequence (P29089 whole entry): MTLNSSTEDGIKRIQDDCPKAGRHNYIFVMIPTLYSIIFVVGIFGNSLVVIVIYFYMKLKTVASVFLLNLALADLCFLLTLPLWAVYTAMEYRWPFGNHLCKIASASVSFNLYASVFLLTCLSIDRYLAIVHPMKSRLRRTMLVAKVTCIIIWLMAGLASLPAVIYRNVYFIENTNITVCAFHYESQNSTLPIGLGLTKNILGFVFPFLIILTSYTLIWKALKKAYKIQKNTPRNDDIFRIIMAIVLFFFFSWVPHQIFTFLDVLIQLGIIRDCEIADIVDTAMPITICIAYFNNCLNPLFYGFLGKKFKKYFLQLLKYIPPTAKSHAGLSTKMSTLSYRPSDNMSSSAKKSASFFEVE
T1 sequence (P25095 whole entry): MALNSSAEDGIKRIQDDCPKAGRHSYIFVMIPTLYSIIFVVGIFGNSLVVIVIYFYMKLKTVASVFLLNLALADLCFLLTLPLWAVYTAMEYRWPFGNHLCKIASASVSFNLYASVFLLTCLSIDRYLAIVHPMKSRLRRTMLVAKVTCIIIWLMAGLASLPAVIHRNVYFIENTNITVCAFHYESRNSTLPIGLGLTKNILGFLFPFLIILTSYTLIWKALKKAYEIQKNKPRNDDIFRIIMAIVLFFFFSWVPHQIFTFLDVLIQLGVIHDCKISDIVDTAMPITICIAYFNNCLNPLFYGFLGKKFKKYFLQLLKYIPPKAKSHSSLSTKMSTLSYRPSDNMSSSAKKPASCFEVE
Experiment: Binding affinity against AT1 receptor in rat adrenal tissue
Assay type: tissue-based
Details: not given

| SMILES | IC50 [nM] |
| --- | --- |
| Cn1nnnc1-c1ccccc1-c1ccc(Cn2cnc3ccc(N(Cc4ccccn4)C(=O)c4ccccc4)cc3c2=O)cc1 | 1.3 |
| Cn1nnnc1-c1ccccc1-c1ccc(Cn2cnc3ccc(N(Cc4ccccn4)C(=O)c4ccco4)cc3c2=O)cc1 | 2.1 |

Species on record: Rattus norvegicus
Experiment: not given
Details: dose 1 mg/kg; route intravenous

| SMILES | Duration [h] |
| --- | --- |
| CCCCCN(C(=O)c1ccco1)c1ccc2ncn(Cc3ccc(-c4ccccc4-c4nnnn4C)cc3)c(=O)c2c1 | <3 |
| CCCCC(=O)N(Cc1ccccc1)c1ccc2ncn(Cc3ccc(-c4ccccc4-c4nnnn4C)cc3)c(=O)c2c1 | >3 |
| CCCCCN(C(=O)c1ccncc1)c1ccc2ncn(Cc3ccc(-c4ccccc4-c4nnnn4C)cc3)c(=O)c2c1 | >3 |
| Cn1nnnc1-c1ccccc1-c1ccc(Cn2cnc3ccc(N(Cc4ccccn4)C(=O)c4ccco4)cc3c2=O)cc1 | >3 |
| CCCCCN(C(=O)c1ccc([S+](C)[O-])cc1)c1ccc2ncn(Cc3ccc(-c4ccccc4-c4nnnn4C)cc3)c(=O)c2c1 (stereo unspecified) | <3 |

Target: T2, Type-1 angiotensin II receptor (Homo sapiens, UniProt P30556)
T2 sequence (P30556 whole entry): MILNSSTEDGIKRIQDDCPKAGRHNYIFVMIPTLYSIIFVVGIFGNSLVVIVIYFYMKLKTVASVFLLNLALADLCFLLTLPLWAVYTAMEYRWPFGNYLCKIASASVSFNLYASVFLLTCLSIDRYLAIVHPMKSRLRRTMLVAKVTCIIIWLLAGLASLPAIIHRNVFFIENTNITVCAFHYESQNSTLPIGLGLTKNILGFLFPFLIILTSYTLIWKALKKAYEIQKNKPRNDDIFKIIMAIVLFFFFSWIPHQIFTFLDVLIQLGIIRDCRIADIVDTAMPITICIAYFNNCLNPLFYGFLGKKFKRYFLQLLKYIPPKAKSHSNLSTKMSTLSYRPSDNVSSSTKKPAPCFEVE
Experiment: biochemical
Details: not given

| SMILES | IC50 [nM] |
| --- | --- |
| Cn1nnnc1-c1ccccc1-c1ccc(Cn2cnc3ccc(N(Cc4ccccn4)C(=O)c4ccccc4)cc3c2=O)cc1 | 5.09 |
| CCCCC(=O)N(Cc1ccccc1)c1ccc2ncn(Cc3ccc(-c4ccccc4-c4nnnn4C)cc3)c(=O)c2c1 | 5.7 |
| Cn1nnnc1-c1ccccc1-c1ccc(Cn2cnc3ccc(N(Cc4ccccn4)C(=O)c4ccco4)cc3c2=O)cc1 | 10.6 |

Target: T3, Type-1 angiotensin II receptor (Oryctolagus cuniculus, UniProt P34976)
T3 sequence (P34976 whole entry): T2 sequence (P30556 whole entry) with I2M, V49A, I254V, I270V, R272H, R311K, T349S, A353V
Experiment: biochemical
Details: not given

| SMILES | IC50 [nM] |
| --- | --- |
| CCCCCN(Cc1ccccc1)c1ccc2ncn(Cc3ccc(-c4ccccc4-c4nnnn4C)cc3)c(=O)c2c1 | 20 |
| CCCCCN(C(=O)c1ccco1)c1ccc2ncn(Cc3ccc(-c4ccccc4-c4nnnn4C)cc3)c(=O)c2c1 | 3.2 |
| Cn1nnnc1-c1ccccc1-c1ccc(Cn2cnc3ccc(N(C(=O)c4ccccc4)c4ccccc4)cc3c2=O)cc1 | 2.5 |
| CCCCS(=O)(=O)N(Cc1ccccc1)c1ccc2ncn(Cc3ccc(-c4ccccc4-c4nnnn4C)cc3)c(=O)c2c1 | 23 |
| Cn1nnnc1-c1ccccc1-c1ccc(Cn2cnc3ccc(N(CC(=O)c4ccco4)C(=O)c4ccccc4)cc3c2=O)cc1 | 18.5 |
| Cn1nnnc1-c1ccccc1-c1ccc(Cn2cnc3ccc(N(CCCCO)C(=O)c4ccccc4)cc3c2=O)cc1 | 2.6 |
| Cn1nnnc1-c1ccccc1-c1ccc(Cn2cnc3ccc(N(Cc4ccccn4)C(=O)c4ccccc4)cc3c2=O)cc1 | 6.7 |
| CCCCCN(C(=O)c1ccc(S(C)(=O)=O)cc1)c1ccc2ncn(Cc3ccc(-c4ccccc4-c4nnnn4C)cc3)c(=O)c2c1 | 7.2 |
| CCOCCN(C(=O)c1ccccc1)c1ccc2ncn(Cc3ccc(-c4ccccc4-c4nnnn4C)cc3)c(=O)c2c1 | 1.6 |
| CCCCC(=O)N(Cc1ccccc1)c1ccc2ncn(Cc3ccc(-c4ccccc4-c4nnnn4C)cc3)c(=O)c2c1 | 2.4 |
| CCCCCN(C(=O)c1ccc(SC)cc1)c1ccc2ncn(Cc3ccc(-c4ccccc4-c4nnnn4C)cc3)c(=O)c2c1 | 6.4 |
| Cn1nnnc1-c1ccccc1-c1ccc(Cn2cnc3ccc(N(Cc4ccccc4)C(=O)c4ccccn4)cc3c2=O)cc1 | 9.3 |
| CCOC(=O)CCCN(C(=O)c1ccccc1)c1ccc2ncn(Cc3ccc(-c4ccccc4-c4nnnn4C)cc3)c(=O)c2c1 | 2.3 |
| Cn1nnnc1-c1ccccc1-c1ccc(Cn2cnc3ccc(N(CCCC(=O)O)C(=O)c4ccccc4)cc3c2=O)cc1 | 9.5 |
| CCCCCN(C(=O)c1ccncc1)c1ccc2ncn(Cc3ccc(-c4ccccc4-c4nnnn4C)cc3)c(=O)c2c1 | 2.8 |
| Cn1nnnc1-c1ccccc1-c1ccc(Cn2cnc3ccc(N(Cc4ccc(C(=O)O)cc4)C(=O)c4ccccc4)cc3c2=O)cc1 | 6.5 |
| Cn1nnnc1-c1ccccc1-c1ccc(Cn2cnc3ccc(N(Cc4ccccn4)C(=O)c4ccco4)cc3c2=O)cc1 | 7.5 |
| CCCCCN(C(=O)c1ccc([S+](C)[O-])cc1)c1ccc2ncn(Cc3ccc(-c4ccccc4-c4nnnn4C)cc3)c(=O)c2c1 (stereo unspecified) | 21 |

Target: Angiotensin II receptor (Rattus norvegicus) (UniProt P29089+P25095+P35351)
Experiment: Ratio of receptor binding affinity AT2/AT1 in rat adrenal tissue
Details: not given

| SMILES | Ratio |
| --- | --- |
| Cn1nnnc1-c1ccccc1-c1ccc(Cn2cnc3ccc(N(Cc4ccccn4)C(=O)c4ccccc4)cc3c2=O)cc1 | 0.5 |
| Cn1nnnc1-c1ccccc1-c1ccc(Cn2cnc3ccc(N(Cc4ccccn4)C(=O)c4ccco4)cc3c2=O)cc1 | 0.3 |
